One compound from paper PMC3062156, “Biochanin A, a Phytoestrogenic Isoflavone with Selective Inhibition of Phosphodiesterase 4, Suppresses Ovalbumin-Induced Airway Hyperresponsiveness” (Evidence-based Complementary and Alternative Medicine : eCAM, 2011) can be followed below.

In this assay the target is T1, phosphodiesterase 4 (PDE4), high-affinity rolipram binding sites (PDE4H).
T1 construct: native PDE4 in particulate (cell membrane) portion of guinea pig whole brain; subtype not specified
In words: [3H]-rolipram radioligand displacement on guinea pig brain membranes; weak, […] displacement at […]. Conditions: read-out: EC50 (the source's name). Also noted: species or system Cavia porcellus. For orientation: Loss of bound radioactivity is the signal in a displacement assay; it reports binding, not function.

Each structure is given as a SMILES string.

For `COc1ccc(-c2coc3cc(O)cc(O)c3c2=O)cc1` [Biochanin A], the IC50 is > 300 µM.
